Measured values published in US20070202054A1, “Inhalant Formulation Containing Sulfoalkyl Ether Cyclodextrin and Corticosteroid” (priority 2003, published 2007).
One block for each molecule: values may come before it.

Tests used:
[1] = human, in vivo; cited from earlier work
[2] = Viscosity of SAE-CD solutions (cone and plate viscometer); assay type: physicochemical; conditions: 25 C.
Description: The performance of an inhalable solution of the invention in a nebulizer may depend upon the viscosity of the solution in its reservoir, the nebulization solution. Viscosity of the inhalable composition can have an impact on percentage of nebulization composition emitted from a nebulizer, output rate of nebulized corticosteroid and droplet size distribution.
The viscosity of aqueous solutions containing SAE-CD were measured using a cone and plate viscometer.
A Brookfield Programmable DV-III+ Rheometer, CPE-40 cone and CPE 40Y plate (Brookfield Engineering Laboratories, Middleboro, Mass.) was used to make measurements on 0.5 ml samples at 1, 2, 3, 5 and 10 rpm. Samples were sheered for approximately 5 revolutions prior to each measurement. This allowed accurate rheological characterization of the samples. The temperature of all samples was equilibrated to 25±1 degree centigrade using a double wall viscometer cone supplied with water from an electronically controlled thermostatic circulating water bath (Model, 8001, Fisher Scientific, Pittsburgh, Pa.). The viscometer was calibrated using 5 and 50 centipoise using silicon oil calibration standards. Viscosity measurements were made at 5 or more rotation speeds to look for sheer thinning behavior (viscosities that decrease as the rate of sheer increases). Higher rotation speeds result in increased rates of sheer.

red blood cells = conditions: concentrations typically used to solubilize pharmaceutical formulations; cited from earlier work
[3] = Density of CAPTISOL solutions (pycnometer); assay type: physicochemical; conditions: 25° C.
Description: The concentration of SAE-CD in solution can be expressed on a weight to weight or weight to volume basis; however, these two units are interconvertible. When a known weight of cyclodextrin is dissolved in a known weight of water, the % w/w cyclodextrin concentration is determined by dividing the cyclodextrin weight in grams by the total weight (cyclodextrin+water weight) in like units and multiplying by 100. When a known weight of cyclodextrin is dissolved to a known total volume, the % w/v cyclodextrin concentration is determined by dividing the cyclodextrin weight in grams by the total volume in milliliters and multiplying by 100. The correlation between the two cyclodextrin concentration percentages was experimentally determined by preparing various % w/w cyclodextrin solutions and measuring the density of each with a pycnometer at 25° C.

[4] = assay type: physicochemical
Description: The phase solubility binding curve for Salmeterol xinafoate and budesonide was determined as described herein, and the approximate equilibrium binding constant (Ki) of each with CAPTISOL was determined. […] The molar ratio of CAPTISOL to Salmeterol xinafoate at saturated solubility was about 3.2 under the test conditions used. Their may be a reduction in the amount of budesonide solubilized by CAPTISOL in the presence of Salmeterol xinafoate; however, clear aqueous liquid solution formulations comprising therapeutically effective amounts of budesonide and Salmeterol xinafoate were prepared.

Molecule: CCNC(=O)[C@@H]1CCCN1C(=O)[C@H](CCCNC(=N)N)NC(=O)[C@H](CC(C)C)NC(=O)[C@@H](CC(C)C)NC(=O)[C@H](Cc1ccc(O)cc1)NC(=O)[C@H](CO)NC(=O)[C@H](Cc1c[nH]c2ccccc12)NC(=O)[C@H](Cc1c[nH]cn1)NC(=O)[C@@H]1CCC(=O)N1 [leuprolide acetate]
mean bioavailability [1]: 6.6%

Density ([3]; Captisol 8.5 % w/w): 1.041 g/mL | Density ([3]; Captisol 29.8 % w/w): 1.149 g/mL | Density ([3]; Captisol 39.7 % w/w): 1.202 g/mL | Density ([3]; Captisol 49.4 % w/w): 1.259 g/mL | Density ([3]; Captisol 59.4 % w/w): 1.320 g/mL | Density ([3]; Captisol […] w/w): 1.095 g/mL
Molecule: Sulfobutyl Ether-β-Cyclodextrin [Captisol]
Viscosity ([2]; Captisol 8.5 % w/w): 1.75 Cp | Viscosity ([2]; Captisol 29.8 % w/w): 5.91 Cp | Viscosity ([2]; Captisol 39.7 % w/w): 17.0 Cp | Viscosity ([2]; Captisol 49.4 % w/w): 51.9 Cp | Viscosity ([2]; Captisol 59.4 % w/w): 527.0 Cp | Viscosity ([2]; Captisol […] w/w): 2.78 Cp | hemolytic behavior (red blood cells): essentially no hemolytic behavior

approximate equilibrium binding constant (Ki) with CAPTISOL [4]: ~600
Molecule: CCCC1O[C@@H]2C[C@H]3[C@@H]4CCC5=CC(=O)C=C[C@]5(C)[C@H]4[C@@H](O)C[C@]3(C)[C@]2(C(=O)CO)O1 (stereo partly drawn) [Budesonide, (R,S)-11β,16α,17,21-tetrahydroxypregna-1,4-diene-3,20-dione cyclic 16,17-acetal with butyraldehyde]

approximate equilibrium binding constant (Ki) with CAPTISOL [4]: approximately 3,500 | molar ratio of CAPTISOL to drug at saturated solubility [4]: about 3.2
Molecule: OCc1cc(C(O)CNCCCCCCOCCCCc2ccccc2)ccc1O (centres unmarked) [Salmeterol xinafoate]
